# Experiments:
# Format in all cases: functional
# T47D = assay: Cytotoxicity against human T47D cells assessed as cellular growth at 10 uM after 48 hrs by SRB assay relative to control
# DU-145 = assay: Cytotoxicity against human DU145 cells assessed as cellular growth at 10 uM after 48 hrs by SRB assay relative to control
# KM12 [1] = assay: Cytotoxicity against human KM12 cells assessed as cellular growth at 10 uM after 48 hrs by SRB assay relative to control
# HCC 2998 = assay: Cytotoxicity against human HCC2998 cells assessed as cellular growth at 10 uM after 48 hrs by SRB assay relative to control
# NCI-H226 [2] = assay: Cytotoxicity against human NCI-H226 cells assessed as cellular growth at 10 uM after 48 hrs by SRB assay relative to control
# MOLT-4 = assay: Cytotoxicity against human MOLT4 cells assessed as cellular growth at 10 uM after 48 hrs by SRB assay relative to control
# OVCAR-5 [3] = assay: Cytotoxicity against human OVCAR5 cells assessed as cellular growth at 0.01 uM after 48 hrs by SRB assay relative to control
# IGROV-1 [4] = assay: Cytotoxicity against human IGROV1 cells assessed as cellular growth at 0.01 uM after 48 hrs by SRB assay relative to control
# UACC-257 = assay: Cytotoxicity against human UACC257 cells assessed as cellular growth at 0.01 uM after 48 hrs by SRB assay relative to control
# SK-MEL-28 = assay: Cytotoxicity against human SK-MEL-28 cells assessed as cellular growth at 0.01 uM after 48 hrs by SRB assay relative to control
# SNB-19 = assay: Cytotoxicity against human SNB19 cells assessed as cellular growth at 0.01 uM after 48 hrs by SRB assay relative to control
# KM12 [5] = assay: Cytotoxicity against human KM12 cells assessed as cellular growth at 0.01 uM after 48 hrs by SRB assay relative to control
# HOP-62 [6] = assay: Cytotoxicity against human HOP62 cells assessed as cellular growth at 0.01 uM after 48 hrs by SRB assay relative to control
# MCF7 [7] = assay: Cytotoxicity against human MCF7 cells assessed as cellular growth at 100 uM after 48 hrs by SRB assay relative to control
# OVCAR-5 [8] = assay: Cytotoxicity against human OVCAR5 cells assessed as cellular growth at 100 uM after 48 hrs by SRB assay relative to control
# IGROV-1 [9] = assay: Cytotoxicity against human IGROV1 cells assessed as cellular growth at 100 uM after 48 hrs by SRB assay relative to control
# SNB-75 = assay: Cytotoxicity against human SNB75 cells assessed as cellular growth at 100 uM after 48 hrs by SRB assay relative to control
# NCI-H460 [10] = assay: Cytotoxicity against human NCI-H460 cells assessed as cellular growth at 100 uM after 48 hrs by SRB assay relative to control
# NCI-H322M = assay: Cytotoxicity against human NCI-H322M cells assessed as cellular growth at 100 uM after 48 hrs by SRB assay relative to control
# K562 = assay: Cytotoxicity against human K562 cells assessed as cellular growth at 100 uM after 48 hrs by SRB assay relative to control
# SW-620 [11] = assay: Cytotoxicity against human SW620 cells assessed as cellular growth at 10 uM after 48 hrs by SRB assay relative to control
# HOP-62 [12] = assay: Cytotoxicity against human HOP62 cells assessed as cellular growth at 10 uM after 48 hrs by SRB assay relative to control
# SK-MEL-5 [13] = assay: Cytotoxicity against human SK-MEL-5 cells assessed as cellular growth at 1 uM after 48 hrs by SRB assay relative to control
# NCI-H460 [14] = assay: Cytotoxicity against human NCI-H460 cells assessed as cellular growth at 1 uM after 48 hrs by SRB assay relative to control
# MCF7 [15] = assay: Cytotoxicity against human MCF7 cells assessed as cellular growth at 0.1 uM after 48 hrs by SRB assay relative to control
# MCF7 [16] = assay: Cytotoxicity against human MCF7 cells after 48 hrs by SRB assay; settings: MCF7, 48 h
# SK-MEL-5 [17] = assay: Cytotoxicity against human SK-MEL-5 cells after 48 hrs by SRB assay; settings: SK-MEL-5, 48 h
# SW-620 [18] = assay: Cytotoxicity against human SW620 cells after 48 hrs by SRB assay; settings: SW-620, 48 h
# HCT-116 = assay: Cytotoxicity against human HCT116 cells after 48 hrs by SRB assay; settings: HCT-116, 48 h
# ACHN = assay: Cytotoxicity against human ACHN cells assessed as cellular growth at 0.1 uM after 48 hrs by SRB assay relative to control
# SK-MEL-5 [19] = assay: Cytotoxicity against human SK-MEL-5 cells assessed as cellular growth at 0.1 uM after 48 hrs by SRB assay relative to control
# U-251 = assay: Cytotoxicity against human U251 cells assessed as cellular growth at 0.1 uM after 48 hrs by SRB assay relative to control
# SF-539 = assay: Cytotoxicity against human SF539 cells assessed as cellular growth at 0.1 uM after 48 hrs by SRB assay relative to control
# SF-295 = assay: Cytotoxicity against human SF295 cells assessed as cellular growth at 0.1 uM after 48 hrs by SRB assay relative to control
# SW-620 [20] = assay: Cytotoxicity against human SW620 cells assessed as cellular growth at 0.1 uM after 48 hrs by SRB assay relative to control
# SF-268 = assay: Cytotoxicity against human SF268 cells assessed as cellular growth at 0.1 uM after 48 hrs by SRB assay relative to control
# NCI-H226 [21] = assay: Cytotoxicity against human NCI-H226 cells assessed as cellular growth at 0.1 uM after 48 hrs by SRB assay relative to control
# CCRF-CEM = assay: Cytotoxicity against human CCRF-CEM cells assessed as cellular growth at 0.1 uM after 48 hrs by SRB assay relative to control
# TK-10 = assay: Cytotoxicity against human TK10 cells assessed as cellular growth at 0.01 uM after 48 hrs by SRB assay relative to control
# A498 = assay: Cytotoxicity against human A498 cells assessed as cellular growth at 0.01 uM after 48 hrs by SRB assay relative to control
# [22] = read-out: LC50 (the source's name)
# [23] = read-out: pLC50 (the source's name) (converted)
smiles,measurement,setting,value
O=C(O)CCCn1c2c(sc3ccccc32)c(=O)n2nnc(-c3ccccc3)c12,Activity,T47D,78.01%
same,Activity,DU-145,94.87%
same,Activity,KM12 [1],86.08%
same,Activity,HCC 2998,96.03%
same,Activity,NCI-H226 [2],82.97%
same,Activity,MOLT-4,96.85%
O=C(CCCn1c2c(sc3ccccc32)c(=O)n2nnc(-c3ccccc3)c12)NCCc1c[nH]cn1,Activity,OVCAR-5 [3],94%
same,Activity,IGROV-1 [4],101%
same,Activity,UACC-257,108%
same,Activity,SK-MEL-28,117%
same,Activity,SNB-19,94%
same,Activity,KM12 [5],106%
same,Activity,HOP-62 [6],112%
same,Activity,MCF7 [7],-73%
same,Activity,OVCAR-5 [8],-80%
same,Activity,IGROV-1 [9],-63%
same,Activity,SNB-75,-96%
same,Activity,NCI-H460 [10],-15%
same,Activity,NCI-H322M,-84%
same,Activity,K562,-100%
same,Activity,T47D,-25.44%
same,Activity,DU-145,-100%
same,Activity,SW-620 [11],-84.52%
same,Activity,KM12 [1],-90%
same,Activity,HCC 2998,25.66%
same,Activity,NCI-H226 [2],-14%
same,Activity,HOP-62 [12],-79%
same,Activity,MOLT-4,79.44%
same,Activity,SK-MEL-5 [13],70%
same,Activity,NCI-H460 [14],75%
same,Activity,MCF7 [15],75%
same,GI50,MCF7 [16]; read-out: GI50,1.15 µM
same,LC50,MCF7 [16]; read-out: LC50,6.11 µM
same,TGI,MCF7 [16]; read-out: TGI,2.65 µM
same,GI50,MCF7 [16]; read-out: pGI50 (converted),1.15 µM
same,LC50,MCF7 [16]; read-out: pLC50 (converted),6.17 µM
same,TGI,MCF7 [16]; read-out: pTGI (converted),2.63 µM
same,GI50,SK-MEL-5 [17]; read-out: GI50,2.02 µM
same,CC50,SK-MEL-5 [17]; [22],33.2 µM
same,TGI,SK-MEL-5 [17]; read-out: TGI,11 µM
same,GI50,SK-MEL-5 [17]; read-out: pGI50 (converted),2.04 µM
same,CC50,SK-MEL-5 [17]; [23],33.1 µM
same,TGI,SK-MEL-5 [17]; read-out: pTGI (converted),11 µM
same,GI50,SW-620 [18]; read-out: GI50,0.024 µM
same,CC50,SW-620 [18]; [22],4.16 µM
same,TGI,SW-620 [18]; read-out: TGI,1.01 µM
same,GI50,SW-620 [18]; read-out: pGI50 (converted),0.024 µM
same,CC50,SW-620 [18]; [23],4.17 µM
same,TGI,SW-620 [18]; read-out: pTGI (converted),1 µM
same,GI50,HCT-116; read-out: GI50,< 0.01 µM
same,GI50,HCT-116; read-out: pGI50 (converted),0.01 µM
same,Activity,ACHN,100%
same,Activity,SK-MEL-5 [19],90%
same,Activity,U-251,54%
same,Activity,SF-539,1%
same,Activity,SF-295,70%
same,Activity,SW-620 [20],29%
same,Activity,SF-268,93%
same,Activity,NCI-H226 [21],95%
same,Activity,CCRF-CEM,24%
same,Activity,TK-10,96%
same,Activity,A498,93%
CN1CCN(CCCn2c3c(sc4ncccc43)c(=O)n3nnc(-c4ccccc4)c23)CC1,Activity,OVCAR-5 [3],105%
same,Activity,IGROV-1 [4],102%
same,Activity,UACC-257,94%
same,Activity,SK-MEL-28,100%
same,Activity,SNB-19,101%
same,Activity,KM12 [5],101%
same,Activity,HOP-62 [6],97%
same,Activity,MCF7 [7],-79%
same,Activity,OVCAR-5 [8],-44%
same,Activity,IGROV-1 [9],-75%
same,Activity,SNB-75,-94%
same,Activity,NCI-H460 [10],-72%
same,Activity,NCI-H322M,-92%
same,Activity,K562,-29%
same,Activity,T47D,103%
same,Activity,DU-145,-74%
same,Activity,SW-620 [11],-63%
same,Activity,KM12 [1],-79%
same,Activity,HCC 2998,-87%
same,Activity,NCI-H226 [2],71%
same,Activity,HOP-62 [12],-90%
same,Activity,MOLT-4,-50%
same,Activity,SK-MEL-5 [13],93%
same,Activity,NCI-H460 [14],95%
same,Activity,MCF7 [15],87%
same,GI50,MCF7 [16]; read-out: GI50,1.53 µM
same,LC50,MCF7 [16]; read-out: LC50,5.82 µM
same,TGI,MCF7 [16]; read-out: TGI,2.99 µM
same,GI50,MCF7 [16]; read-out: pGI50 (converted),1.55 µM
same,LC50,MCF7 [16]; read-out: pLC50 (converted),5.75 µM
same,TGI,MCF7 [16]; read-out: pTGI (converted),3.02 µM
same,GI50,SK-MEL-5 [17]; read-out: GI50,1.7 µM
same,CC50,SK-MEL-5 [17]; [22],5.81 µM
same,TGI,SK-MEL-5 [17]; read-out: TGI,3.14 µM
same,GI50,SK-MEL-5 [17]; read-out: pGI50 (converted),1.7 µM
same,CC50,SK-MEL-5 [17]; [23],5.75 µM
same,TGI,SK-MEL-5 [17]; read-out: pTGI (converted),3.16 µM
same,GI50,SW-620 [18]; read-out: GI50,1.68 µM
same,CC50,SW-620 [18]; [22],8.1 µM
same,TGI,SW-620 [18]; read-out: TGI,3.69 µM
same,GI50,SW-620 [18]; read-out: pGI50 (converted),1.7 µM
same,CC50,SW-620 [18]; [23],8.13 µM
same,TGI,SW-620 [18]; read-out: pTGI (converted),3.72 µM
same,GI50,HCT-116; read-out: GI50,1.71 µM
same,CC50,HCT-116; [22],6.96 µM
same,TGI,HCT-116; read-out: TGI,3.45 µM
same,GI50,HCT-116; read-out: pGI50 (converted),1.7 µM
same,CC50,HCT-116; [23],6.92 µM
same,TGI,HCT-116; read-out: pTGI (converted),3.47 µM
same,Activity,ACHN,91%
same,Activity,SK-MEL-5 [19],92%
same,Activity,U-251,100%
same,Activity,SF-539,89%
same,Activity,SF-295,94%
same,Activity,SW-620 [20],89%
same,Activity,SF-268,89%
same,Activity,NCI-H226 [21],80%
same,Activity,CCRF-CEM,99%
same,Activity,TK-10,105%
same,Activity,A498,67%
